Test results reported in patent publication US20160303068A1, “Compositions and Methods For Treating Brain Injury and Brain Diseases” (University of Washington through its Center for …, priority 2013, published 2016).
Entries after “also recorded” stand apart in the source; their conditions may differ.

Columns and labels:
[1] = test system: AD transgenic mouse models; conditions: in vivo; cited from earlier work
[2] = test system: rodent model of traumatic brain injury; experiment: MRI (T1-weighted, quantitative T2 maps) of injury volume and edema after controlled cortical impact; format: in vivo, C57BL6 mice
Protocol: (§1) Rodent subjects (C57BL6 mice, 10 wks, male, n=12) had craniotomy over the right frontoparietal cortex of 5 mm, plus mild controlled cortical impact (CCI) surgery using a pneumatic impactor (AmScien Instruments, Richmond, Va.) at 6 m/s strike velocity, 1 mm depth of penetration, and 150 ms contact time, under isoflurane anesthesia. Immediately following CCI, 200 ug/kg paclitaxel (n=6) or vehicle (n=6) was applied to the brain injury site. Sham surgery (craniotomy, but no CCI) was performed on controls (n=3).
(§2) At 2 days post-surgery, gait assessment of the subjects was conducted using CatWalk automated gait analysis (Noldus Information Tech, The Netherlands) followed by high-tesla magnetic resonance imaging (14T MR Avance III Ultrashield, Bruker BioSpin, Billerica, Mass.). T1-weighted and quantitative T2 maps were obtained: MDEFT (3D modified driven equilibrium Fourier transform), […]: 12°, TR (repetition time): 5000 ms, TE (echo time): 1.9ms, resolution 0.140×0.140×0.25 mm^3, 64 slices; T2 map: TR=2000 ms, 16 echoes, spacing:6.7 ms, TE1: 6.7 ms, TE 2:13.4 ms, resolution 0.12×0.12×1.0 mm^3, 15 slices. Manual volume of interest (VOI) analysis of injury volume and volume of edema related to injury was performed.

3×Tg-AD mice = experiment: Manganese-enhanced MRI (MEMRI) of axonal transport rates in the olfactory tract, 3×Tg-AD mice; format: in vivo; conditions: intranasal 0.6 mg/kg, vs saline or young wild-type controls
Excerpt: MRI: Mice are anesthetized with isoflurane and scanned on an ultra-high resolution 14T MRI (Avance III, Bruker BioSpin Corp, Billerica, Mass.). Dynamic manganese enhanced magnetic resonance imaging (dyMEMRI): Mice are anesthetized with isoflurane and administered a unilateral injection of Sul of 1 M MnCl2 intranasally (with occlusion to block septal window). Parameters for magnetization prepared rapid gradient echo (MPRAGE) (TR/TE=11/5.3 ms; Ti=1000 ms; FA=9 deg acquired matrix 108×108 mm over 55 slices, voxel 0.2×0.2×0.4 mm3 interpolated to 0.1×0.1×0.2 mm3). […] MicroPET: Metabolic brain activity is assessed using FDG-PET performed under isoflurane anesthesia with 30 min uptake after 250 μCi intraperitoneal injection of FDG. […]
The effect of intra-nasal treatment of taxanes on the development of neurodegenerative pathology in a model of Alzheimer's disease was also studied. […] Treatment effectiveness was assessed with the same outcome measures as described in Example 1.
(§3) Intranasal paclitaxel (Hospira, Inc., Lake Forest, Ill.) was administered to 3×Tg-AD mice (0.6 mg/kg in 0.9 percent saline, […] per nostril). […] Dynamic T1-weighted MR imaging detected signal enhancement and post-processing algorithms calculate a relative rate of transport. […]

[3] = test system: rodent model of traumatic brain injury; experiment: Macromolecular proton fraction (MPF) imaging of myelin density adjacent to injury after CCI; format: in vivo, C57BL6 mice
Protocol: as §1
Macromolecular proton fraction (MPF) imaging is a quantitative magnetic resonance technique that measures the magnetization transfer between protons bound to water and protons bound to macromolecules. MPF imaging was performed to evaluate myelin degradation adjacent to injury. […] Mean myelin density was calculated for a region of interest (circular region having a diameter of […]) that was larger than the actual injury (1.5 mm).

wild-type mice = experiment: Manganese-enhanced MRI (MEMRI) of axonal transport rates, wild-type mice; format: in vivo; conditions: wild-type mice treated with paclitaxel vs young wild-type controls, p≦0.01
Excerpt: MRI: Mice are anesthetized with isoflurane and scanned on an ultra-high resolution 14T MRI (Avance III, Bruker BioSpin Corp, Billerica, Mass.). Dynamic manganese enhanced magnetic resonance imaging (dyMEMRI): Mice are anesthetized with isoflurane and administered a unilateral injection of Sul of 1 M MnCl2 intranasally (with occlusion to block septal window). Parameters for magnetization prepared rapid gradient echo (MPRAGE) (TR/TE=11/5.3 ms; Ti=1000 ms; FA=9 deg acquired matrix 108×108 mm over 55 slices, voxel 0.2×0.2×0.4 mm3 interpolated to 0.1×0.1×0.2 mm3). Mice are scanned dynamically for 45 min (early uptake) at 1 hour post administration, allowed to recover and scanned again at 4-6 hours post (late transport) for 60 min. DTI acquired as 4 shot echo planar image (EPI); TR/TE=4000/18 ms, 30 diffusion directions, multislice 2D, b=1000 s/mm2, FOV 19×19 mm, matrix size=128×128 with slice thickness=0.5 mm over 9 min. MicroPET: Metabolic brain activity is assessed using FDG-PET performed under isoflurane anesthesia with 30 min uptake after 250 μCi intraperitoneal injection of FDG. […]
as §3

[4] = test system: glia fibrillary acidic protein (GFAP) expression; experiment: GFAP immunostain of CA1 region of hippocampus (reactive astrocytes); format: in vivo, 3×Tg-AD mice; conditions: intranasal 0.6 mg/kg at 2 week intervals for 3 months; vs saline
Protocol: Histology and Westerns. All confocal microscopy and immunohistochemistry are performed on perfusion fixed tissue prepared from animals that, immediately after euthanasia with pentobaritol (100 mg/kg), are perfused with saline followed by 4 percent paraformaldehyde/saline. For biochemical experiments (Western blots, etc.) other animals are perfused after death with saline and then the brains are rapidly dissected and flash frozen in liquid N2. Brain sections corresponding to the olfactory bulb are stained for Fluoro-Jade (1:1000, Histo-Chem Inc., AR, USA) as a marker of degenerating neurons and can be used to assess if 9 months of paclitaxel intranasal treatment may be neurotoxic. Glial fibrillary acidic protein (GFAP, 1:1500, Dako, Carpinteria, Calif.), an astroglial marker, and ionized calcium-binding adapter molecule 1 (Iba-1) (1:1000 Dako, Carpinteria, Calif.), a marker of microglial activation are processed using Avidin-Biotin procedure, which uses biotinylated secondary antibodies, avidin coupled to horse radish peroxidase (HRP) and reacted with 3,3′diaminobenzidine.
The application of paclitaxel to 3×Tg-AD mice (0.6 mg/kg at 2 week intervals for 3 months, intranasal administration) was investigated. It has been shown that microglia and astrocytes respond acutely to brain injury. […]

spinal cord injury = conditions: after spinal cord injury; cited from earlier work
[5] = test system: rodent model of traumatic brain injury; experiment: Fractional anisotropy imaging of external capsule integrity after CCI; format: in vivo, C57BL6 mice; conditions: following CCI; paclitaxel not intranasally administered
Protocol: as §1
The MPF results were corroborated using cross-relaxation imaging. Cross-relaxation imaging (CRI) is a quantitative magnetic resonance technique that measures the kinetic parameters of magnetization transfer between protons bound to water and protons bound to macromolecules. Here, in vivo, four-parameter CRI of normal rat brains (n=5) at 3.0 T was first directly compared to histology. The bound pool fraction, f, was strongly associated with myelin density (Pearson's r=0.99, p<0.001). The correlation persisted in separate analyses of gray matter (GM; r=0.89, p=0.046) and white matter (WM; r=0.97, p=0.029). The CRI results validated the MPF results, in that the taxane helped to preserve myelin density around the injury. Fractional anisotropy imaging was carried out to evaluate the integrity of underlying external capsule. […]

[6] = [3H] paclitaxel distribution in brain via intranasal administration; format: in vivo, male CD-1 mice; conditions: 1 μCi [3H] paclitaxel in 1 μl PBS to the right nares
Protocol: FIGS. 4 A and 4B are graphs showing [^3H] paclitaxel distribution via intranasal administration in male CD-1 mice, 8 weeks, after administration of 1 μCi of [^3H] paclitaxel in 1 μl PBS to the right nares;
FIGS. 4A and 4B show distribution of a taxane (paclitaxel) in the brain, when the taxane is administered intranasally. […] Thus, the intranasally administered taxane can bypass the blood-brain barrier (BBB) via the olfactory epithelium, and thereby provide therapeutic effect to a subject. The treatment methods can advantageously administer drug to the brain (e.g., an injured area of the brain) while minimizing side effects in non-target organs. The methods can have widespread applications. For example, intranasal administration of taxanes can result in decreased neuroinflammation, and can therefore be used in treatment of neuroinflammatory conditions, such as neurodegenerative diseases including Alzheimer's disease and related tauopathies, multiple sclerosis, viral infections, Parkinson's disease, as well as head trauma and mild concussions.

[7] = test system: rodent model of traumatic brain injury; experiment: CatWalk automated gait analysis after CCI; format: in vivo, C57BL6 mice
Protocol: as §1, §2

C/C1=C/C[C@@H](/C(C)=C/c2csc(C)n2)OC(=O)C[C@H](O)C(C)(C)C(=O)[C@H](C)[C@@H](O)[C@@H](C)CCC1 [epothilone D]
cognitive performance [1]: improve cognitive performance
tau pathology [1]: reduce associated tau pathology

CC(=O)O[C@H]1C(=O)[C@@]2(C)[C@H]([C@H](OC(=O)c3ccccc3)[C@]3(O)C[C@H](OC(=O)[C@H](O)[C@@H](NC(=O)c4ccccc4)c4ccccc4)C(C)=C1C3(C)C)[C@]1(OC(C)=O)CO[C@@H]1C[C@@H]2O [paclitaxel]
injury volume ([2]; 200 ug/kg applied to brain injury site immediately after CCI, MRI 2 days post-surgery, vs vehicle 9.96±2.3, p≦0.05): 7.94±1.5 mm^3
hyperintense voxels (edema) on quantitative T2 maps ([2]; 200 ug/kg applied to brain injury site, 2 days post-surgery, vs vehicle 11.92±3.0, p≦0.05): 8.86±2.2 mm^3
reduction of hyperintense voxels (edema) ([2]; 200 ug/kg applied to brain injury site, vs vehicle): 26%
reduction in injury volume ([2]; 200 ug/kg applied to brain injury site, vs vehicle, T2 and T1 images): 20%
injury volume on T1-weighted MRI (in words) ([2]; paclitaxel versus saline treatment): indicating reduced injury
axonal transport rates (3×Tg-AD mice): increased transport significantly; also recorded: Improved axonal transport rates; also recorded: relatively increased
MPF bound percent, injury side ([3]; mn±sd, vs vehicle 8.95±0.3, p≦0.05): 9.45±0.4
MPF bound percent, contralateral cortical area ([3]; vs vehicle): No difference
increase of MPF bound percent on the injury side ([3]; vs vehicle): 6.6%
axonal transport rates (wild-type mice): relatively increased
GFAP expression / reactive astrocytes in CA1 region of hippocampus [4]: decreased evidence of activated astrocytes; also recorded: markedly reduced reactive astrocytes; also recorded: reduced GFAP expression levels; also recorded: showing reduced
axon regeneration (spinal cord injury): facilitate axon regeneration
underlying white matter integrity (FA values in external capsule) [5]: No significant improvement
brain regions taking up taxane (FIG. 4A) [6]: taken up by the olfactory bulbs, the striatum, the hippocampus, the frontal cortex, the hypothalamus, and the cerebellum
regional brain uptake level (second distribution graph) [6]: high striatum and hypothalamus uptake
maximum print area ([7]; 2 days post-surgery, vs vehicle 0.29±0.08, p≦0.05): 0.38±0.09 cm^2
mean intensity ([7]; 2 days post-surgery, vs vehicle 66.38±5.52, p≦0.05): 79.45±14.26
swing, decreased ([7]; right front (RF) and left hind (LF) only, vs vehicle): 12%
print length, increase ([7]; right hind (RH) only, vs vehicle): 12%
gait parameters (in words) ([7]; short term, 8 days, paclitaxel over saline treated subjects): Improved gait parameters
maximum print area, increased ([7]; vs vehicle): 22-52%
mean intensity, increased ([7]; vs vehicle): 19-22%
print area, increased ([7]; vs vehicle): 20-45%
print width, increased ([7]; vs vehicle): 5-17%
